# According to US8461389B2, “Psycho-pharmaceuticals” (University College Dublin, National University of Ireland, …, priority 2008, dated 2013):
# What was measured:
# [1] = system: C57B16 mice; assay: Elevated X-maze; format: in vivo; details: 3 and 5 mg/kg i.p. once daily for 7 days; FIG. 4
# From the text: The elevated X-Maze, otherwise known as the Elevated Plus Maze is a test that relies on the inherent conflict between exploration of a novel area and avoidance of its aversive features. The test may be used in male or female rats or mice or male gerbils. It is reliable in a wide range of strains and in group-housed or isolated animals. The maze consists of four arms in the form of an x or plus: two open arms and two arms of the same size, also with an open roof but enclosed by walls. The two open arms are opposite each other and converge into a central platform. The animal under investigating is observed by a video camera and its movements scored by the tracking software Ethovision by Noldus. During the experiment the animal is placed in the central platform of the maze facing an open arm and is observed for 5 minutes with the following being measured: number of entries into open arms, number of entries into closed arms, time spent in open arms, time spent in closed arms and finally the time spent in the central square (File et al., Current Protocols in Neuroscience (2004) 8.3.1-8.3.22).
# The elevated X-maze has strong claims to validity as an animal model of anxiety and is of great utility in evaluating putative anxiety modulating drugs. The test is based on rodents' natural fear of heights and open spaces. […]
# [2] = target: T1, serotonin 5HT2c receptor (Homo sapiens, UniProt P28335); assay: Novascreen receptor affinity screen (competition with reference ligand), 5HT2c; format: binding; details: 1 μM Captodiamine competing with a reference ligand; read-out: percent target inhibition, serotonin 5HT2c receptor
# T1 construct: Novascreen (contract screen)
# T1 sequence (P28335 33-458): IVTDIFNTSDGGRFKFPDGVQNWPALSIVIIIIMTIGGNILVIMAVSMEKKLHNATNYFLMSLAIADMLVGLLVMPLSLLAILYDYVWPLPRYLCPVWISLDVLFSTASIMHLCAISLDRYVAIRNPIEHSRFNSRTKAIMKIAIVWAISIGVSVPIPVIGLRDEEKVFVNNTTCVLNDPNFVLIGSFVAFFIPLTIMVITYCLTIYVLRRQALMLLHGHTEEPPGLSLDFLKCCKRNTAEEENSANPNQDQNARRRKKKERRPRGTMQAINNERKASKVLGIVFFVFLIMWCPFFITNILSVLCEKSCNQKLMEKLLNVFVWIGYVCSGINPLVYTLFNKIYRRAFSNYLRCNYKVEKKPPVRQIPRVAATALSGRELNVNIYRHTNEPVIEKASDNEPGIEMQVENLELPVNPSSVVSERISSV
# Procedure: The Structure (FIG. 9A), receptor affinity (FIG. 9B), pharmacokinetics (FIG. 9C) and growth factor modulation (FIG. 9D) of Captodiamine are provided. Analysis of receptor affinities was performed by Novascreen™ and those displacing >20% of the natural ligand are indicated by the filled boxes. Blood levels of Captodiamine were determined by GC mass spectroscopy. In separate samples taken from a cannulated jugular at increasing time intervals following a single intraperitoneal injection of tha drug (5 mg/kg). Growth factor analysis was performed using tissue homogenates and ELISA assays specific for each growth factor (Promega). Values were analysed using a Student t-test and those with a p value<0.05 were accepted as significant and are indicated with an asterisk.
# The higher the target inhibition value, the greater the affinity Captodiamine has for this particular receptor as it displaces a greater proportion of the reference ligand. This assay is an automated high throughput assay performed on cell lines that express only one type of receptor and was carried out by Novascreen (www.novascreen.com). Receptor affinity is a good starting point for determining the mechanism of action for a particular compound.
smiles,measurement,setting,value
"CCCCSc1ccc(C(SCCN(C)C)c2ccccc2)cc1 (centres unmarked) [Captodiamine, 2-[(4-butylsulfanylphenyl)-phenyl-methyl]sulfanyl-N,N-dimethyl-ethanamin]",time exploring the open arms of the elevated X-maze,[1],significantly longer periods exploring the open arms
same,inhibition at 1 µM,[2],> 80%
